Measurements reported in patent US20260256811A1, “Humoral Immune Activators for the Treatment of Humoral Immunosuppressed Pathologies, Cancer and Infectious Disease and Humoral Immune Suppressors for the Treatment of Inflammatory Diseases” (Navrogen, Inc., priority 2022, published 2026).

Tests used:
CD16a-158F FcR = biological target: T1, CD16a-158F FcR (Homo sapiens, UniProt P08637); test: Jurkat-CD16a-158F-luciferase (JKT-CD16a) reporter bioassay; type: cell-based
T1 construct: host or cells: Jurkat (JKT-CD16a luciferase reporter line)
T1 sequence (P08637 17-254): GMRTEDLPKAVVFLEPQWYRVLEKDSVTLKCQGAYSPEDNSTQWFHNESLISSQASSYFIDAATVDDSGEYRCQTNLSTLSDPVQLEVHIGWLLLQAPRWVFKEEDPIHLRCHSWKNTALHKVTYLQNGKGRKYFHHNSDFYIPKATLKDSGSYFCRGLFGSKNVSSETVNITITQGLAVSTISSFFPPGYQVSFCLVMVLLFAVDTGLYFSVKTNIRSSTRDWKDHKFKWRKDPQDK
T1 sequence (P20963 22-164 partner): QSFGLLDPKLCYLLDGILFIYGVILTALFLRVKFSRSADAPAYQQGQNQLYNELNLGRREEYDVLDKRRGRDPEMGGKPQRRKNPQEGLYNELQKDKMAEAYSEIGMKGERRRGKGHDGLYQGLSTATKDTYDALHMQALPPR

human CD16a-158F = biological target: T2, human CD16a-158F (Homo sapiens, UniProt P08637); test: ELISA: CD16a-158F-HIS binding to coated pertuzumab (PTZ); details: for enhancement of CD16a-158F binding to IgG (PTZ): 10 μM, P<0.005; for suppression of CD16a-PTZ interaction: 2.5 μg/mL PTZ coat, human CD16a-158F-HIS probe, P≤0.005
T2 construct: made in house
T2 sequence (P08637 with tags, fused parts or gaps): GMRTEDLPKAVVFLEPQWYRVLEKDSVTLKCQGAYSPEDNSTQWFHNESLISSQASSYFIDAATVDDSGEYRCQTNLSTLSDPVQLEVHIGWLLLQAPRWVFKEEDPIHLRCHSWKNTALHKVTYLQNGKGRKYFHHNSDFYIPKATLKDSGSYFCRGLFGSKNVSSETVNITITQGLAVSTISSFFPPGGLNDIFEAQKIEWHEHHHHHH
Method: (§1) Analysis of Compound 2 derived analogs described in Example 3 were conducted testing for enhanced CD16a FcR binding to IgG via ELISA. Briefly, 96 well plates were coated with PTZ as described above and probed with CD16a-158F-HIS in the presence of 10 μM parental Compound 2 and R5/R6 Compound analogs 22-34 to assay for those mediating enhanced CD16a-IgG binding. […] To further evaluate the impact of enhanced binding these compounds were tested for enhancing human PBMC ADCC as described above. Human breast cancer SKBR3 cells were plated in black 96-well microplates at 5,000 cell/well in R7.5 and grown overnight at 37° C. in 5% CO2. The next day 50,000 PBMCs in R1 medium were added per well in the presence of 1 or 5 μM of each compound or ethanol (EtOH) vehicle control in triplicates. Wells treated with EtOH and PTZ without PBMCs were used as a negative control. Cultures were incubated for 24 hours at 37° C. in 5% CO2 in triplicate. After incubation, target cell viability was quantified via Cell Titer-GLO (Promega) using a Varioskan plate reader. Units are shown as relative luminescent units (RLU).
Analogs of this class may be useful for suppressing inflammatory diseases. […] The teaching here has shown that the Compound 1, 2, 3 and 4 scaffolds can be utilized to add chemical groups that can enhance their activity for CD16a stimulation. Here we provide an example of how these scaffolds can be used to develop CD16a antagonists to suppress CD16a-IgG interactions and downstream activities, including production of proinflammatory cytokines such as IFNγ. FIGS. 10 and 13 show ELISA binding assays as described in Example 1. Briefly, 96-well clear microplates were coated with 2.5 μg/mL pertuzumab (PTZ) IgG or HSA as negative control (no PTZ). Wells were then probed with human CD16a-158F-HIS with or without compounds to monitor CD16a-PTZ binding. […] These scaffolds embody a primary inventive step that is taught within this application.

[1] = Metabolic stability in mouse liver microsomes; type: in vitro ADME
Method: (§2) We next tested Compounds 2, 26, 27 and 33 for metabolic stability using human and mouse microsomes. For each test compound, samples were diluted a final concentration of 2 μg/mL in 25 mM potassium phosphate buffer with liver microsomes of each species at a final concentration of 0.5 mg/mL. The enzyme reaction was initiated by the addition of NADPH reagent at a final concentration of 1 mM. For negative control samples, NADPH reagent was not added. Samples were incubated at 37° C. on a 50-RPM orbital shaker, and an aliquot was removed at pre-determined timepoints at 0, 5, 10, 15, 30, and 60 minutes. Samples were then precipitated with three volume of acetonitrile containing propranolol as an internal standard, and centrifuged for 10 min at 2000 g then analyzed by LC/MS/MS. Note that compounds undergo only Phase I metabolism in liver microsomes in the presence of NADPH cofactors. Data interpretation of results are based on percent parent compound remaining relative to 0-minute incubation samples, from which the elimination half-life is calculated based on the natural log of % compound remaining vs. time plot. The following parameters were calculated to estimate the compound's in vitro metabolic stability: Cmp=concentration of microsomal proteins (mg/mL); t1/2=the half-life (min), where t1/2 is equal to 0.693/slope; CLint=the intrinsic hepatic clearance (μL/min/mg), where CLint is equal to 0.693/(t1/2×Cmp).

[2] = Metabolic stability in human liver microsomes; type: in vitro ADME
Method: as §2

SKBR3 cells = test: ADCC killing of SKBR3 cells via pertuzumab with human PBMCs; type: cell-based; details: 1 or 5 μM, PTZ, 24 hours, P<0.0000075 over Compound 2
Method: as §1

in vivo = details: mouse, po, 100 mg/kg
Method: To further determine the pharmacologic properties of Compound 27, we tested for its oral bioavailability and ability to activate NK cells systemically in mice as determined measuring NK cell activation markers IFNγ and TNFα. For oral bioavailability, mice were fed a standard laboratory rodent diet and housed in individual cages on a 12-hour light and 12-hour dark cycle with at […] and relative humidity at 50±20%. Animals are fasted overnight before dosing, with food returned after 6 hours at which time blood samples are obtained. Water is provided ad libitum throughout the study. Compound 27 was prepared by grinding its precipitated powder into fine particles and suspended in 0.5% hydroxypropyl methylcellulose (HPMC) in water. Three animals were dosed via gavage needle for oral administration at 100 mg/kg (10 mL/kg). Blood samples (25-30 μL per sample) were taken via the saphenous vein at 5, 15, 30 minutes, and 1, 2, 4, 6, 8, 24 hours after administration. Additional blood samples (150-200 μL per sample) were taken at 24 hours for cytokine analysis. Blood samples were collected in Greiner MiniCollect K2EDTA tubes, placed on ice, and within 30 minutes, centrifuged at 15,000 g for 5 min to obtain plasma samples with additional 50-100 μLs of each plasma sample collected at 24 hours. All plasma samples were stored at −70° C. until analysis.
Bioanalysis of plasma samples were conducted as follows. Plasma samples were prepared using three volumes of acetonitrile containing internal standard to one volume of plasma to precipitate proteins. Samples were centrifuged at 3000 g for 10 minutes and supernatant removed for analysis by LC-MS/MS. Calibration standards and quality controls were made by preparation of a 1 mg/mL stock solution and subsequently a series of working solutions in methanol:water (1:1, v/v), which were spiked into blank plasma to yield a series of calibration standard samples ranging from 1 ng/ml to 10 μg/mL and quality control samples at three concentration levels (low, middle and high). All incurred plasma samples were treated identically to the calibration standards and quality control samples. LC-MS/MS analysis was performed utilizing multiple reaction monitoring for detection of characteristic ions for each drug candidate, additional related analytes and internal standard. Plasma concentrations are measured as described above to determine a concentration vs. time profile. The area under the plasma concentration vs time curve (AUC) is calculated using the linear trapezoidal method, known by those skilled in the art. Fitting of the data to obtain pharmacokinetic (PK) parameters was carried out using non-compartmental analysis.
Key PK parameters reported following extravascular administration are as follows: terminal half-life t1/2, maximum plasma concentration Cmax, time to reach maximum plasma concentration tmax, area under the plasma concentration vs. time curve AUC, mean residence time MRT, and bioavailability F. All parameters are expressed for individual animals as well as mean, standard deviation, and coefficient of variation and are commonly known by those skilled in the art.

NK cells = test: Tolerability and NK cell activation markers after repeated oral dosing in mice; type: in vivo, mouse
Method: To determine the tolerability and ability to systemically activate NK cells in mice, we tested orally administered Compound 27 to mice. Six mice were randomized into treatment groups vehicle control (water) and 100 mg/kg Compound 27 all suspended in 0.5% hydroxypropyl methylcellulose. Mice were dosed orally on days 1-5, 7, 9, 11, 13, 15 and sacrificed on day 16 at which time plasma was collected. Tolerability was based on Day 1 bodyweight of each mouse. The maximum tolerated dose is determined as weight loss exceeding 20% or >10% of animals in a group die.
To confirm that oral administration of Compound 27 activated NK cells, the NK activation markers IFNγ and TNFα were measured from day 16 harvested plasma via ELISA using methods described in Example 1. […] These scaffolds embody a primary inventive step that is taught within this application.

Structure (SMILES): CC(C)=CCC[C@@H](C)[C@H]1CC[C@@]2(C)C3=C(CC[C@]12C)[C@@]1(C)CC[C@H](O)C(C)(C)[C@@H]1CC3 [Compound 1, lanosta-8,24-dien-3β-ol]
- JKT-CD16a activation (luciferase RLU) in the presence of IgG (CD16a-158F FcR; OV-CD20 target cells plus 2.5 μg/mL rituximab, 12-18 hours, vs vehicle or no compound): significant enhancement
- JKT-CD16a-158F FcR activation (luciferase RLU) in the absence of IgG antibody (CD16a-158F FcR; OV-CD20 target cells without antibody, lower levels than with IgG): stimulated

Structure (SMILES): CC(C)NCCC[C@@H](C)[C@H]1CC[C@@]2(C)C3CC[C@H]4C(C)(C)[C@@H](O)CC[C@@]45C[C@@]35CC[C@]12C (stereo partly drawn) [Compound 26]
- enhancement of CD16a-158F binding to IgG (PTZ) (human CD16a-158F): significantly enhanced
- microsomal CLint at 2 μg/mL ([1]; mouse liver microsomes 0.5 mg/mL, 2 μg/mL compound, NADPH, read-out: CLint (μL/min/mg protein) mouse): 2.16 µL/min/mg
- half-life at 2 μg/mL ([1]; mouse liver microsomes 0.5 mg/mL, 2 μg/mL compound, NADPH, read-out: T½ (minutes) mouse): 641 min
- microsomal CLint at 2 μg/mL ([2]; human liver microsomes 0.5 mg/mL, 2 μg/mL compound, NADPH, read-out: CLint (μL/min/mg protein) human): 3.04 µL/min/mg
- half-life at 2 μg/mL ([2]; human liver microsomes 0.5 mg/mL, 2 μg/mL compound, NADPH, read-out: T½ (minutes) human): 456 min

Structure (SMILES): C[C@H](CCCN1CCCCC1)[C@H]1CC[C@@]2(C)C3CC[C@H]4C(C)(C)[C@@H](O)CC[C@@]45C[C@@]35CC[C@]12C (stereo partly drawn) [Compound 27]
- enhancement of CD16a-158F binding to IgG (PTZ) (human CD16a-158F): significantly enhanced
- enhancement of ADCC killing of SKBR3 cells (SKBR3 cells): enhanced ADCC most significantly
- half-life at 2 μg/mL ([1]; mouse, microsomes): 610 min
- microsomal CLint at 2 μg/mL ([1]; mouse, microsomes): 2.27 µL/min/mg
- half-life at 2 μg/mL ([2]; human, microsomes): 701 min
- microsomal CLint at 2 μg/mL ([2]; human, microsomes): 1.98 µL/min/mg
- AUC(0-t) (in vivo): 7750 ng·h/mL
- Cmax (in vivo): 511 ng/mL
- Tmax (in vivo): ≤ 6 h
- bioavailability (in vivo): 11.7%
- concentration at 24 hours (in vivo): 242 ng/mL
- half-life (in vivo): 18.3 h
- tolerability of multiple oral dosing (health, body weight) (NK cells; 100 mg/kg oral on days 1-5, 7, 9, 11, 13, 15): well tolerated
- plasma NK cell activation markers IFNγ and TNFα (NK cells; 100 mg/kg oral, day 16 plasma, ELISA, vs vehicle, P<0.0056): upregulated

Structure (SMILES): C[C@H](CCC(=O)O)[C@H]1CC[C@@]2(C)C3CC[C@H]4C(C)(C)[C@@H](O)CC[C@@]45C[C@@]35CC[C@]12C (stereo partly drawn) [Compound 29]
- suppression of CD16a-PTZ interaction (human CD16a-158F): ~ 49%

Structure (SMILES): C[C@H](CCCO)[C@H]1CC[C@@]2(C)C3CC[C@H]4C(C)(C)[C@@H](O)CC[C@@]45C[C@@]35CC[C@]12C (stereo partly drawn) [Compound 31]
- suppression of CD16a-PTZ interaction (human CD16a-158F): ~ 49%

Structure (SMILES): C[C@H](CCCNCCOCCO)[C@H]1CC[C@@]2(C)C3CC[C@H]4C(C)(C)[C@@H](O)CC[C@@]45C[C@@]35CC[C@]12C (stereo partly drawn) [Compound 32]
- suppression of CD16a-PTZ interaction (human CD16a-158F): ~ 49%

Structure (SMILES): C[C@H](CCCNCCOCCOCCOCCOCCOCCOCCOCCOCCOCCOCCOCCO)[C@H]1CC[C@@]2(C)C3CC[C@H]4C(C)(C)[C@@H](O)CC[C@@]45C[C@@]35CC[C@]12C (stereo partly drawn) [Compound 33]
- enhancement of CD16a-158F binding to IgG (PTZ) (human CD16a-158F): significantly enhanced
- enhancement of ADCC killing of SKBR3 cells (SKBR3 cells): enhanced ADCC most significantly
- half-life at 2 μg/mL ([1]; mouse, microsomes): 65.8 min
- microsomal CLint at 2 μg/mL ([1]; mouse, microsomes): 21.1 µL/min/mg
- half-life at 2 μg/mL ([2]; human, microsomes): 64.5 min
- microsomal CLint at 2 μg/mL ([2]; human, microsomes): 21.5 µL/min/mg
